The values below are quoted from earlier work in patent US12533314B2, “Low sodium oxybate once nightly composition” (Tris Pharma, Inc., priority 2023, dated 2026).

Each structure is given as a SMILES string.

The conditions of this data set: in vivo.

For `O=C(O)CCCO` [Oxybate, Gamma-hydroxybutyrate], the plasma half-life is 30 to 45 min.
